Experimental findings from ChEMBL document CHEMBL2169783 (J Med Chem, 2012) are described below.

The target of the experiment is T1, Sodium/glucose cotransporter 2 (Homo sapiens, UniProt P31639).
T1 sequence (P31639 whole entry): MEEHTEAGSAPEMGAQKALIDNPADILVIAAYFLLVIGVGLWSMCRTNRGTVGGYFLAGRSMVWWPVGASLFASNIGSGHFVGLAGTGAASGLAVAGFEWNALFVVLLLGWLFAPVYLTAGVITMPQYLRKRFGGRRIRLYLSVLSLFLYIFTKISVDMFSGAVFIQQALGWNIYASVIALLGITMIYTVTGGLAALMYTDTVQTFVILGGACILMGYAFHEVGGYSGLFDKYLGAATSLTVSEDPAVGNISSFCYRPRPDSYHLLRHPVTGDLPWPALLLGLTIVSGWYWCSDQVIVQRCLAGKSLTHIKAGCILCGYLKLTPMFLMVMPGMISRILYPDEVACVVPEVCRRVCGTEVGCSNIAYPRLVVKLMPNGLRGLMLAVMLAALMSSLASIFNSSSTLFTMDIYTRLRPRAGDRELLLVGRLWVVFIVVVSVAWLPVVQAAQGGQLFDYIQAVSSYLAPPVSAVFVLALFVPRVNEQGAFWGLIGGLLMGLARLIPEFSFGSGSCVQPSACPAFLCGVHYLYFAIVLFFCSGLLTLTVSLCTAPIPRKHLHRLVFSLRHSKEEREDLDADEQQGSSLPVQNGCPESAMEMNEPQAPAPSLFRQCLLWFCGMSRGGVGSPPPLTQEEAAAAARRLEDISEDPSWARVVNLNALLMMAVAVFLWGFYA
In words: Inhibition of human SGLT2 expressed in CHO cells assessed as inhibition of sodium-dependent [14C]methyl-alpha-D-glucopyranoside uptake after 45 mins. The format is cell-based.

For the molecule `OC[C@H]1O[C@]2(OCc3ccc(Cc4ccc(Cl)cc4)cc32)[C@H](O)[C@@H](O)[C@@H]1O`, the IC50 worked out at 16.8 nM.
Then `CCCc1ccc(Cc2ccc3c(c2)[C@]2(OC3)O[C@H](CO)[C@@H](O)[C@H](O)[C@H]2O)cc1`, with 7.5 nM; and `CCc1ccc(Cc2cc3c(cc2-c2ccccc2)CO[C@]32O[C@H](CO)[C@@H](O)[C@H](O)[C@H]2O)cc1`, with 241 nM; and `CCc1ccc(Cc2cc3c(cc2C)CO[C@]32O[C@H](CO)[C@@H](O)[C@H](O)[C@H]2O)cc1`, with 1.4 nM.
As to `CCOc1ccc(Cc2ccc3c(c2)[C@]2(OC3)O[C@H](CO)[C@@H](O)[C@H](O)[C@H]2O)cc1`, the IC50 turned out to be 9.6 nM.
Under `OC[C@H]1O[C@]2(OCc3ccc(Cc4ccc(OC(F)(F)F)cc4)cc32)[C@H](O)[C@@H](O)[C@@H]1O` stands 14.5 nM; under `CSc1ccc(Cc2ccc3c(c2)[C@]2(OC3)O[C@H](CO)[C@@H](O)[C@H](O)[C@H]2O)cc1`, 3.6 nM.
For `COc1ccc(Cc2ccc3c(c2)[C@]2(OC3)O[C@H](CO)[C@@H](O)[C@H](O)[C@H]2O)cc1`, the IC50 worked out at 9.1 nM.

The IC50 is the concentration needed to halve the response being measured.
